One assay relates to MV-4-11 cells. Kind of assay: Cell viability in MV-4-11 cells (CellTiter Glo2). Format: cell-based. As to conditions: Homo sapiens, MV4-11, 96 h, 8-point dose response, 4 days. A general note: In ATP-based viability assays light output follows the ATP content of the culture.
The next assay addresses T1, NAMPT (Homo sapiens, UniProt P43490).
T1 construct: purchased Abcam ab221819
Kind of assay: NAMPT Activity Assay (Abcam #ab221819). It counts as biochemical. As to conditions: purified NAMPT, two-step reaction, OD450 nm; percent inhibition vs no drug; compound concentration not stated.

Setting [1] is: CellTiter Glo2 (Table E1), read-out: MV-4-11 IC50.
Where [2] appears, read: CellTiter Glo2 (Table E2), read-out: MV-4-11 Cell Viability, MV-4-11 IC50.

Broadly, the IC50 is the point on the concentration scale where inhibition reaches its midpoint.

Read-outs that look alike come from different tables or passages of the source. Some results are limits rather than exact numbers.

T1 sequence (P43490 whole entry): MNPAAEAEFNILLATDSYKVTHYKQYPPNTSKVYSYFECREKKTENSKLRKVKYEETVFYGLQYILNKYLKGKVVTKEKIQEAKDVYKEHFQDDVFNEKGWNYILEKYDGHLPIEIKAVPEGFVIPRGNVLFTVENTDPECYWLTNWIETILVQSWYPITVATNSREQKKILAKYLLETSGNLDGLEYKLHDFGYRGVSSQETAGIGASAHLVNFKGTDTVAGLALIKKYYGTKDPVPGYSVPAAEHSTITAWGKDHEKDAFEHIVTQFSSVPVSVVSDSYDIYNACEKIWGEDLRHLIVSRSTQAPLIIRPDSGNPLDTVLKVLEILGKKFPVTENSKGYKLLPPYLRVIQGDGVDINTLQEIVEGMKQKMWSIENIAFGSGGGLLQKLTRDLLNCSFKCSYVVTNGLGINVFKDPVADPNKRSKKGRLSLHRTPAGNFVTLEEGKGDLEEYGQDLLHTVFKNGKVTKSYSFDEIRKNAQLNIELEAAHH
Description for MV-4-11 cells: Approximately 10,000 MV-4-11 cells per well of a 96-well plate were treated with DMSO (no drug control) or each compound in Tables E1 and E2 in an 8-point dose response for 4 days, Cell viability was measured using CellTiter Glo2. The ICse of each compound was determined using CDD Vault.

For `CC(=O)N(CC(C)C)c1ccc(-c2ccc(C(=O)NCc3cccnc3)cc2)cc1` [Compound I-402, 4-[4-[acetyl(isobutyl)amino]phenyl]-N-(3-pyridylmethyl)benzamide], the IC50 in the assay with MV-4-11 cells (setting [1]) was found to be 0.0587 µM. The “NAMPT Inhibition Code” value on NAMPT is recorded as “C (C = ≥66% inhibition)”.
For `CCOC(=O)N(C)c1ccc(-c2ccc(C(=O)NCc3cccnc3)cn2)cc1` [Compound I-389, ethyl N-methyl-N-[4-[5-(3-pyridylmethylcarbamoyl)-2-pyridyl]phenyl]carbamate] the same measures were 3.17 µM and “A (A = <33% inhibition)”.
With `CC(=O)N(CC1COC1)c1ccc(-c2ccc(C(=O)NCc3cccnc3C)cn2)cc1C` [Compound I-510, 6-[4-[Acetyl(oxetan-3-ylmethyl)amino]-3-methyl-phenyl]-N-[(2-methyl-3-pyridyl)methyl]pyridine-3-carboxamide], in the assay on MV-4-11 cells (setting [2]), the IC50 worked out at 5.91 µM. Further, at NAMPT, the “NAMPT Inhibition Code” value was “A (A = <33% inhibition)”.
`CC(=O)N(CC(F)F)c1ccc(-c2ccc(C(=O)NCc3cccnc3)cn2)cc1C` [Compound I-608, 6-[4-[Acetyl(2,2-difluoroethyl)amino]-3-methyl-phenyl]-N-(3-pyridylmethyl)pyridine-3-carboxamide]: in the assay with MV-4-11 cells (setting [2]), the half-inhibitory concentration (IC50) was 0.22 µM. Further, the “NAMPT Inhibition Code” value on NAMPT is reported as “B (B = ≥33 to <66% inhibition)”.
For `CC(=O)N(C)c1ccc(-c2ccc(C(=O)NCc3cccnc3C)cn2)cc1C#N` [Compound I-456, 6-[4-[acetyl(methyl)amino]-3-cyano-phenyl]-N-[(2-methyl-3-pyridyl)methyl]pyridine-3-carboxamide] the same measures were more than 30 µM and “A (A = <33% inhibition)”.
As for `CCN(C(C)=O)c1ccc(-c2ccc(C(=O)NCc3cccnc3C)cn2)cc1Cl` [Compound I-444, 6-[4-[acetyl(ethyl)amino]-3-chloro-phenyl]-N-[(2-methyl-3-pyridyl)methyl]pyridine-3-carboxamide], in the assay with MV-4-11 cells (setting [1]), the IC50 was 1.82 µM. The “NAMPT Inhibition Code” value at NAMPT is given as “A (A = <33% inhibition)”.
For `CCC(=O)N(C)c1ccc(-c2ccc(C(=O)Nc3nc(C)cs3)cn2)cc1` [Compound I-355, 6-[4-[methyl(propanoyl)amino]phenyl]-N-(4-methylthiazol-2-yl)pyridine-3-carboxamide] the same measures were 2.91 µM and “A (A = <33% inhibition)”.
On to `CC(=O)N(CC1CC(F)(F)C1)c1ccc(-c2ccc(C(=O)NCc3cccnc3)cn2)cc1C` [Compound I-600, 6-[4-[Acetyl-[(3,3-difluorocyclobutyl)methyl]amino]-3-methyl-phenyl]-N-(3-pyridylmethyl)pyridine-3-carboxamide], for which the IC50 in the assay with MV-4-11 cells (setting [2]) was found to be 0.0206 µM. Moreover, the “NAMPT Inhibition Code” value on NAMPT is on record as “B (B = ≥33 to <66% inhibition)”.
`CCC(=O)N(CC(C)C)c1ccc(-c2ccc(C(=O)NCc3cccnc3)cn2)cc1` [Compound I-403, 6-[4-[isobutyl(propanoyl)amino]phenyl]-N-(3-pyridylmethyl)pyridine-3-carboxamide]: the concentration for half-maximal inhibition (IC50) with MV-4-11 cells (setting [1]) was less than 0.0117 µM. Also, the “NAMPT Inhibition Code” value at NAMPT is given as “C (C = ≥66% inhibition)”.
Turning to `COC(=O)c1cc(-c2ccc(C(=O)NCc3cccnc3C)cn2)ccc1N(C)C(C)=O` [Compound I-457, methyl 2-[acetyl(methyl)amino]-5-[5-[(2-methyl-3-pyridyl)methylcarbamoyl]-2-pyridyl]benzoate], the IC50 with MV-4-11 cells (setting [2]) came out at 9.85 µM. In addition, the “NAMPT Inhibition Code” value at NAMPT is reported as “A (A = <33% inhibition)”.
For `CC(=O)N(CCC(F)(F)F)c1ccc(-c2ccc(C(=O)NCc3cccnc3C)cn2)cc1` [Compound I-499, 6-[4-[Acetyl(3,3,3-trifluoropropyl)amino]phenyl]-N-[(2-methyl-3-pyridyl)methyl]pyridine-3-carboxamide] the same measures were 3.99 µM and “A (A = <33% inhibition)”.
The like results for `COC(=O)NCCN(C(C)=O)c1ccc(-c2ccc(C(=O)NCc3cccnc3)cn2)cc1` [Compound I-466, Methyl N-[2-[N-acetyl-4-[5-(3-pyridylmethylcarbamoyl)-2-pyridyl]anilino]ethyl]carbamate] were, in that order, 0.871 µM and “A (A = <33% inhibition)”.
For `COC(=O)NCCC(=O)N(C)c1ccc(-c2ccc(C(=O)NCc3cccnc3C)cn2)cc1C` [Compound I-501, Methyl N-[3-[N,2-dimethyl-4-[5-[(2-methyl-3-pyridyl)methylcarbamoyl]-2-pyridyl]anilino]-3-oxo-propyl]carbamate] the same measures were 1.83 µM and “A (A = <33% inhibition)”.
In the case of `CC(=O)N(CC1CC1)c1ccc(-c2ccc(C(=O)Nc3ccc4nccn4c3)cn2)cc1Cl` [Compound I-681, 6-[4-[Acetyl(cyclopropylmethyl)amino]-3-chloro-phenyl]-N-imidazo[1,2-a]pyridin-6-yl-pyridine-3-carboxamide], the IC50 with MV-4-11 cells (setting [2]) was 0.00131 µM. The “NAMPT Inhibition Code” value on NAMPT is “C (C = ≥66% inhibition)”.
As to `CC(=O)N(CC1CC1)c1ccc(-c2ccc(C(=O)NCc3cccnc3)cn2)cc1` [Compound I-421, 6-[4-[acetyl(cyclopropylmethyl)amino]phenyl]-N-(3-pyridylmethyl)pyridine-3-carboxamide], in the assay on MV-4-11 cells (setting [1]), the concentration for half-maximal inhibition (IC50) was 0.117 µM. Besides, the “NAMPT Inhibition Code” value on NAMPT was “B (B = ≥33 to <66% inhibition)”.
For `CC(=O)N(CC1COC1)c1ccc(-c2ccc(C(=O)NCc3cccnc3)cn2)cc1C` [Compound I-610, 6-[4-[Acetyl(oxetan-3-ylmethyl)amino]-3-methyl-phenyl]-N-(3-pyridylmethyl)pyridine-3-carboxamide], the IC50 in the assay on MV-4-11 cells (setting [2]) worked out at 0.037 µM. Besides, on NAMPT, the “NAMPT Inhibition Code” value is given as “B (B = ≥33 to <66% inhibition)”.
The like results for `CC(=O)N(CC1CC1)c1ccc(-c2ccc(C(=O)NCc3cccnc3C)cn2)cc1` [Compound I-500, 6-[4-[Acetyl(cyclopropylmethyl)amino]phenyl]-N-[(2-methyl-3-pyridyl)methyl]pyridine-3-carboxamide] were, in that order, 2.28 µM and “A (A = <33% inhibition)”.
For `CC(=O)N(c1ccc(-c2ccc(C(=O)NCc3cccnc3C)cn2)cc1C)C(C)C` [Compound I-512, 6-[4-[Acetyl(isopropyl)amino]-3-methyl-phenyl]-N-[(2-methyl-3-pyridyl)methyl]pyridine-3-carboxamide] the same measures were 4.38 µM and “A (A = <33% inhibition)”.
For `CC(=O)N(c1ccc(-c2ccc(C(=O)NCc3cccnc3)cn2)cc1Cl)C(C)C` [Compound I-596, 6-[4-[Acetyl(isopropyl)amino]-3-chloro-phenyl]-N-(3-pyridylmethyl)pyridine-3-carboxamide] the same measures were 0.00239 µM and “C (C = ≥66% inhibition)”.
For `CC(=O)N(CC1CC(F)(F)C1)c1ccc(-c2ccc(C(=O)NCc3cccnc3)cn2)cc1Cl` [Compound I-603, 6-[4-[Acetyl-[(3,3-difluorocyclobutyl)methyl]amino]-3-chloro-phenyl]-N-(3-pyridylmethyl)pyridine-3-carboxamide], the half-inhibitory concentration (IC50) with MV-4-11 cells (setting [2]) is less than 0.00589 µM. Besides, the “NAMPT Inhibition Code” value at NAMPT is listed as “C (C = ≥66% inhibition)”.
Take `CCC(=O)N(C)c1ccc(-c2ccc(C(=O)NCc3ccc(OC)nc3)cn2)cc1` [Compound I-397, N-[(6-methoxy-3-pyridyl)methyl]-6-[4-[methyl(propanoyl)amino]phenyl]pyridine-3-carboxamide]: the IC50 with MV-4-11 cells (setting [1]) was 13.8 µM. Besides, the “NAMPT Inhibition Code” value on NAMPT is given as “B (B = ≥33 to <66% inhibition)”.

For the origin of these results see patent US12612368B2 (Remedy Plan, Inc., priority 2019, dated 2026).
